For data set [1], the system named is HT-1080 (fibrosarcoma) cells. In words: Cell viability (CellTiter Glo) assay, inhibition of HT-1080 cell proliferation. The settings on record: Homo sapiens, HT-1080 cells, 72 hours. The format is cell-based.
Data set [2] deals with KP4 (pancreatic ductal adenocarcinoma) cells. In words: Cell viability (CellTiter Glo) assay, inhibition of KP4 cell proliferation. The settings on record: Homo sapiens, KP-4; KP4 cells, 72 hours, CellTiter Glo; read-out: IC50, inhibition of KP4 cell proliferation. The format is cell-based.
The test system of data set [3] is 786-O (renal cell carcinoma) cells. In words: Cell viability (CellTiter Glo) assay, inhibition of 786-O cell proliferation. It is filed as cell-based. The note with it: Homo sapiens, 786-0; 786-O cells, 72 hours, CellTiter Glo; read-out: IC50, inhibition of 786-O cell proliferation.
The nature of data set [4]: Whole blood stability, human. It is filed as in vitro ADME. The note with it: 37° C.; for % Remaining: 1 μM; for half-life at 1 μM: fresh whole blood.
Data set [5] can be described thus: Whole blood stability, mouse. The note with it: 37° C.; for % Remaining: 1 μM; for half-life at 1 μM: male, Balb/c, fresh whole blood. The format is in vitro ADME. How it is done:
For example, in some embodiments, provided compounds have suitable stability profiles for various applications including therapeutic uses. Various technologies are available in the art for assessing properties, e.g., stability, of compounds and compositions, and can be utilized in accordance with the present disclosure. Certain useful technologies are described herein as examples. In some embodiments, stability was assessed in fresh blood samples, e.g., of human or mouse.
In some embodiments, fresh blood samples were collected from male Balb/c mouse with EDTA-K2 as anti-coagulant. Blood was collected before experiment and stored at 2˜8° C., and equilibrated to room temperature before use. Compounds were dissolved in DMSO at 10 mM concentration. Glibenclamide, used as an internal standard (1S), was prepared in DMSO at 1 mg/mL concentration. An aliquot of 594 μL of blank blood was spiked with 6 μL of working solution (100 μM) to achieve 1 μM of final concentration for test compounds. Solution samples were incubated for 0, 10, 30, 60, 90 and 120 minutes at 37° C., e.g., in a water bath.
An Agilent ZORBAX XDB-C18 (3.5 μm, 50×2.1 mm) was used for HPLC analysis. Mobile phases were 0.1% formic acid in water (mobile phase A), and 0.1% formic acid in acetonitrile (mobile phase B). The injection volume was 10 μL. Mass spectrometer was calibrated and tuned for each test compound. The % remaining of test compound in blood was calculated using the following equation: […]

A further data set deals with 786-O cells. In words: Anti-proliferation activity in 786-O cells in the presence of a ferroptosis inhibitor (Ferrostatin-1 or Liproxstatin-1). The format is cell-based. The settings on record: Homo sapiens. The method, then:
In one assessment, cells (KP4, 786-0 and HT-1080) were seeded (700 cells/well, 1000 cells/well or 3000 cells/well) in 384-well or 96-well plates and incubated at 37° C./5% CO2 for 22-24 hours. A series of 8 different concentrations of compound stocks were created by 5-fold serial dilution in DMSO. These compounds were further diluted in culture media and were then added to cells (final concentrations: 100 μM, 20 μM, 4 μM, 0.8 μM, 0.16 μM, […].). After 72 hours of incubation, 30 μL of CellTiter Glo reagent (Promega) was added to each well and luminescence was measured after 10 minutes using SpectraMax M5/M5e (Molecular Devices). Luminescence from cells treated with DMSO alone was set as background and % of inhibition was calculated as follows: […]
Anti-proliferation activity of various compounds was also tested in the presence of an ferroptosis inhibitor, Ferrostatin-1 (2 μM) or Liproxstatin-1 (2 μM). Certain results are provided in Table 4 and Table 5 as examples. “A” indicates an IC50≤100 nM; “B” indicates an IC50 of >100 nM and ≤500 nM; “C” indicates an IC50>500 nM and ≤5 μM; and “D” indicates an IC50>5 μM.

Where [6] appears, read: 786-0, 72 h, no ferroptosis inhibitor, read-out: IC50, No Ferroptosis Inhibitor (Table 5).
The mark [7] stands for this setting: 786-0, Ferrostatin-1 (2 μM), read-out: IC50, With Ferrostatin-1.
Where [8] appears, read: 786-0, no ferroptosis inhibitor, read-out: IC50, No Ferroptosis Inhibitor (Table 4).

pIC50: −log10 of the molar value. Read-outs that look alike come from different tables or passages of the source.

Consider `N=C(OCc1nc(N)nc(Nc2ccc(Oc3ccccc3)cc2)n1)N1CCCCC1=O` [Compound F18], for which the pIC50 in data set [1] is 5.30 to 6.30.
With `N=C(OCc1nc(N)nc(Nc2ccc(Oc3ccccc3)cc2)n1)N1CCOCC1` [Compound F6], the pIC50 was above 7.00 in data set [2], 6.30 to 7.00 in data set [3] and above 7.00 in data set [1]. Further, the “% Remaining” value came out at 84% @ 120 min in data set [4] (@ 120 min) and 78% @ 120 min in data set [5] (@ 120 min). The half-life at 1 μM came to 6.07 h in data set [4] and 5.65 h in data set [5].
Consider `N=C(NC1CCCCC1)OCc1nc(N)nc(Nc2ccc(Oc3ccccc3)cc2)n1` [Compound F9], for which the pIC50 is 6.30 to 7.00 in data set [2], above 7.00 in data set [3] and 6.30 to 7.00 in data set [1].
As to `CN(C(=N)OCc1nc(N)nc(Nc2ccc(Oc3ccccc3)cc2)n1)C1CCCCC1` [Compound F22], the pIC50 in data set [3] was above 7.00; in data set [1], 6.30 to 7.00; in the data set on 786-O cells (setting [6]), above 7.00.
Regarding `C[C@@H]1CN(C(=N)OCc2nc(Nc3ccc(Oc4ccccc4)cc3)c3cc[nH]c3n2)C[C@H](C)N1C(=O)OC(C)(C)C` [Compound D2], the pIC50 is above 7.00 in data set [2] and 6.30 to 7.00 in data set [1].
Consider `CC1(C)CN(c2ccc(Oc3ccccc3)cc2)c2nc(COC(=N)N3CCCCC3C(F)(F)F)nc(N)c21` (stereo not shown) [Compound E4], for which the pIC50 in data set [3] and in data set [1] was above 7.00 throughout.
As to `N=C(NC12CC3CC(CC(C3)C1)C2)OCc1nc(N)nc(Nc2ccc(Oc3ccccc3)cc2)n1` [Compound F20], the pIC50 (in data set [3]; in data set [1]; in the data set on 786-O cells (setting [6])) was 6.30 to 7.00 throughout.
In the case of `CC1(C)CN(c2ccc(Oc3ccccc3)cc2)c2nc(COC(=N)N3CCC(F)(F)CC3)nc(N)c21` [Compound E2], the pIC50 (in data set [3]; in data set [1]; in the data set with 786-O cells (setting [6])) was above 7.00 throughout. Besides, the “% Remaining” value stood at 69.7% @ 240 min in data set [4] (@ 240 min) and 63.9% @ 240 min in data set [5] (@ 240 min). The half-life at 1 μM in data set [4] was 7.85 h; in data set [5] it was 6.47 h.
As for `CNc1nc(COC(=N)N2CCC[C@@H]2C(F)(F)F)nc2c1C1(CCCC1)C(=O)N2c1cnc(N2C[C@@H](C)O[C@@H](C)C2)nc1` [Compound E88, (7′-{2-[(2R,6S)-2,6-dimethylmorpholin-4-yl]pyrimidin-5-yl}-4′-(methylamino)-6′-oxo-6′,7′-dihydrospiro[cyclopentane-1,5′-pyrrolo[2,3-d]pyrimidin]-2′-yl)methyl (2R)-2-(trifluoromethyl)pyrrolidine-1-carboximidate], the pIC50 (in data set [3]; in the data set on 786-O cells (setting [6])) was above 7.00 throughout.
On to `C[C@@H]1CN(c2ncc(N3C(=O)C4(CCCC4)c4c(N)nc(COC(=N)N5CCC[C@@H]5C(F)(F)F)nc43)cn2)C[C@H](C)O1` [Compound E87, (4′-amino-7′-(2-((2S,6R)-2,6-dimethylmorpholino)pyrimidin-5-yl)-6′-oxo-6′,7′-dihydrospiro[cyclopentane-1,5′-pyrrolo[2,3-d]pyrimidin]-2′-yl)methyl (R)-2-(trifluoromethyl)pyrrolidine-1-carbimidate], for which the pIC50 (in data set [3]; in the data set with 786-O cells (setting [6])) was above 7.00 each time.
As for `CCN1CCN(C(=N)OCc2nc(N)nc(Nc3ccc(Oc4ccccc4)cc3)n2)C2(CC2)C1=O` [Compound F19], the pIC50 in data set [3] was 6.30 to 7.00; in data set [1], 5.30 to 6.30; with 786-O cells (setting [6]), 6.30 to 7.00.
On to `CCN1CCN(C(=N)OCc2nc(N)c3c(n2)N(c2ccc(Oc4ccccc4)cc2)CC3(C)C)C2(CC2)C1=O` [Compound E5], for which the pIC50 in data set [3] and in data set [1] was 6.30 to 7.00 in each case.
Take `N=C(OCc1nc(N)nc(Nc2ccc(Oc3ccccc3)cc2)n1)N1CCC(F)(F)CC1` [Compound F13]: the pIC50 in data set [2] is above 7.00; in data set [3], above 7.00; in data set [1], above 7.00; in the data set with 786-O cells (setting [7]), below 5.30; in the data set with 786-O cells (setting [8]), above 7.00. Moreover, the “% Remaining” value in data set [4] (@ 240 min) stood at 57.6% @ 240 min; in data set [5] (@ 240 min), 74% @ 240 min. Further, the figures for the half-life at 1 μM in data set [4] and in data set [5] were 5.35 h and 7.95 h, respectively.
As for `CN(C)C(=N)OCc1nc(Nc2ccc(Oc3ccccc3)cc2)c2cc[nH]c2n1` [Compound D3], the pIC50 in data set [2], in data set [3] and in data set [1] was 5.30 to 6.30 in each case.
In the case of `N=C(OCc1nc(N)c2c(n1)N(c1cnc(C3CCOCC3)nc1)C(=O)C21CCCC1)N1CCC[C@@H]1C(F)(F)F` [Compound E100, (4′-amino-6′-oxo-7′-(2-(tetrahydro-2H-pyran-4-yl)pyrimidin-5-yl)-6′,7′-dihydrospiro[cyclopentane-1,5′-pyrrolo[2,3-d]pyrimidin]-2′-yl)methyl (R)-2-(trifluoromethyl)pyrrolidine-1-carbimidate], the pIC50 (in data set [3]; with 786-O cells (setting [6])) was 6.30 to 7.00 throughout.
Consider `C#CCOc1cccc(Oc2ccc(Nc3nc(N)nc(COC(=N)N4CCC(F)(F)CC4)n3)cc2)c1` [Compound F21], for which the pIC50 (in data set [3]; in the data set on 786-O cells (setting [6])) was above 7.00 in each case.
Take `CNc1nc(COC(=N)N2CCC[C@@H]2C(F)(F)F)nc2c1C1(CCCC1)C(=O)N2c1cnc(N2C3CCC2COC3)nc1` [Compound E94]: the pIC50 (in data set [3]; with 786-O cells (setting [6])) was above 7.00 in each case.
On to `CNc1nc(COC(=N)N2CCC[C@@H]2C(F)(F)F)nc2c1C1(CCCC1)C(=O)N2c1cnc(C2CCOCC2)nc1` [Compound E99], for which the pIC50 (in data set [3]; in the data set on 786-O cells (setting [6])) was 5.30 to 6.30 in each case.
In the case of `CN(C)C(=N)OCc1nc(N)nc(Nc2ccc(Oc3ccccc3)cc2)n1` [Compound F31], the pIC50 in data set [2], in data set [3] and in data set [1] was 6.30 to 7.00 in each case.
As to `N=C(OCc1nc(Nc2ccc(Oc3ccccc3)cc2)c2cc[nH]c2n1)N1CCC(F)(F)CC1` [Compound D6], the pIC50 in data set [2] is 6.30 to 7.00; in data set [3] it was 6.30 to 7.00; in the data set on 786-O cells (setting [7]), below 5.30; in the data set with 786-O cells (setting [8]), 6.30 to 7.00.

The record behind these values is US20250304571A1, “BIOLOGICALLY ACTIVE COMPOUNDS AND METHODS THEREOF” (Suzhou Keen Therapeutics Co., Ltd., priority 2022, published 2025).
